Assay results published in patent US6544957B2, “Methods and reagents for facilitating transcription” (The Johns Hopkins University, priority 2000, dated 2003).
Values joined by “and” are separate entries in the source; they are usually repeats but may differ in a detail not shown here. Identical values can stand only once.

Key:
[1] = Richon et al., 1996; cited from earlier work
[2] = system: PANC-1 cells having stably integrated p6SBE-luc; assay: Dose response of transcriptional facilitation in stably transfected cell line (FIG. 3); format: cell-based; conditions: for transcriptional facilitation (in words): at concentrations corresponding to scriptaid; for optimal concentration for transcriptional facilitation: PANC-1 stably integrated p6SBE-luc, luciferase
Protocol: FIG. 3. Dose responses of TSA and scriptaid transcriptional facilitation in a stably transfected cell line. Luciferase activity was determined using PANC-1 cells having stably integrated p6SBE-luc at the indicated concentration of compounds. Data represent averages of two to three experiments and SEM.
(§1) Cell Lines. PANC-1 and MDA-MB-468 cell lines were purchased from ATCC (Manassas, Va.). Stable transfectants were generated by co-transfection of pcDNA3.1 (Invitrogen, Carlsbad, Calif.) and p6SBE-luc into PANC-1 cells with LipofectAMINE (Life Technologies, Inc.). Transfected cells were diluted and selected in multiple 96-well plates in the presence of 0.5 mg/ml of G418 (Life Technologies, Inc.). Single clones were expanded and tested for basal luciferase expression and TGFβ inducibility. One clone was chosen on basis of high (6 to 8-fold) induction of luciferase by 0.5 ng/ml TGFβ (R&D Systems, Minneapolis, Minn.).
(§2) Compound Screening. Each compound of the library (DIVERSet, ChemBridge, San Diego, Calif.) was dissolved and diluted in DMSO at 1 mg/ml. Cells were plated in 96-well cluster plates (Corning, Cambridge, Mass.) and incubated with each compound, after further dilution in culture media to the final concentration of 2 μg/ml, for 16-18 hours. Luciferase activity was measured upon addition of Steady-Glo substrate (Promega). Up to sixteen 96-well plates could be assembled in a Wallac Trilux photodetector (Wallac, Gaithersburg, Md.) for measurement. All readouts from each experiment were compared to the control wells, and a number reflecting the relative increase in luciferase activity was calculated for each chemical using Excel (Microsoft, Redmond, Wash.) spreadsheets.
The entire library, consisting of 16,320 compounds, was screened. Eleven compounds were associated with a two to five-fold induction of luciferase activity, and one with a twelve-fold activation (FIG. 1). Further studies on the latter compound (ID#217444, 6-(1,3-Dioxo-1H,3H-benzo[de]isoquinolin-2-yl)-hexanoic acid hydroxyamide, we termed scriptaid) are reported here (FIG. 2). […] The results were validated by repeated determinations in the screening assay and subsequently by a dose-response curve performed on PANC-1 cells containing stably integrated p6SBE-luc (FIG. 3).

[3] = system: p6SBE-luc reporter construct in PANC-1 cells; assay: Compound screening, luciferase activity in PANC-1 cells with stably integrated p6SBE-luc; format: cell-based; conditions: 2 μg/ml compound, 16-18 hours, initial library screen
Protocol: as §1
as §2, with “spreadsheets. […]” for “spreadsheets.”

[4] = system: histone deacetylase (HDAC) in PANC-1 cells; assay: Immunoblotting assay of histone acetylation; format: cell-based
Protocol: PANC-1 cells were untreated or treated with scriptaid (2 μg/ml) or TSA (0.1 or 0.32 μg/ml). Acetylated histones were detected by anti-human acetyl-lysine antibody immunoblot. Immunoblotting Assay of Histone Acetylation. PANC-1 cells were treated with 2 μg/ml of scriptaid (ChemBridge), 0.1 μg/ml, or 0.32 μg/ml of trichostatin A (Sigma, St. Louis, Mo.) for 18 hours in culture media. Treated and untreated cells were harvested with trypsin-EDTA (Life Technologies, Inc.), washed with phosphate-buffered saline (Life Technologies, Inc.), and resuspended in a protein sample buffer. Protein concentration was determined by BCA protein assay reagents (Pierce, Rockford, Ill.). Fifty micrograms of proteins from each sample was loaded on a 12% denaturing polyacrylamide gel. Proteins were subsequently transferred to a nylon membrane (Imobilon P, Millipore, Burlington, Mass.) using Milliblot-Graphite Electroblotter I (Millipore). The nylon membrane was incubated with rabbit anti-human acetyl-lysine antibody (#06-933, Upstate Biotechnology, Waltham, Mass.) at 1:1000 dilution, followed by goat anti-rabbit antibody coupled to horseradish peroxidase (Pierce) at 1:2000 dilution, developed with SuperSignal substrates (Pierce), and detected by film (BioMax, Kodak, Rochester, N.Y.).

[5] = system: PANC-1 and MDA-MB-468 cells; assay: Survival curve, trypan-blue exclusion; format: cell-based; conditions: 18-hour incubation; for cytotoxicity (in words): at optimal concentration for transcriptional facilitation
Protocol: FIGS. 5A to 5B. Effects of compounds on cell survival. […] Data represent averages of two to four experiments and SEM. FIG. 5A, scriptaid. FIG. 5B, TSA.
Survival Curve. Equal numbers of cells were plated in six-well plates in the absence or presence of scriptaid or TSA at different concentrations. After 18 hours of incubation, cell numbers were determined by trypan-blue exclusion. Percent survival of the treated cells was calculated in comparison to the untreated sample, which was considered to represent 100%.

[6] = system: p6SBE-luc, p6MBE-luc, pCMVβ, pUB6/V5-lacZ reporters in PANC-1 or MDA-MB-468 cells; assay: Transient transfection reporter assay (luciferase, β-gal); format: cell-based; conditions: 18 hours; for facilitation of reporter expression after transient transfection (in words): SV40, CMV and ubiquitin c promoters, PANC-1 or MDA-MB-468
Protocol: FIGS. 7A-7C. Scriptaid and TSA transcriptional facilitation after transient transfection. PANC-1 or MDA-MB-468 cells were transiently transfected for 4 hours with constructs containing various promoters. Transfected cells were untreated or treated with scriptaid or TSA for 18 hours. Data represent averages of two to five experiments and SEM. FIG. 7A, SV40 promoter and luciferase reporter gene. FIG. 7B, CMV promoter and β-gal reporter gene. FIG. 7C, human ubiquitin c promoter and β-gal reporter gene.
Transfection Assay. Each transient transfection experiment was done in duplicate in six-well plates. LipofectAMINE (Life Technologies, Inc.) was used as directed by the manufacturer. The DNA-LipofectAMINE mixture was removed from cells after 4-5 hours of transfection, and culture media with or without compounds or TGFβ was then added to the cells. Sixteen to eighteen hours from the start of the transfection, cell lysates were prepared with Reporter Lysis Buffer (Promega) for luciferase and β-gal assays. Luciferase was measured using The Luciferase Assay System (Promega) and β-gal assay was performed as previously described (Dai et al., 1998). Studies of the SV40 promoter included all experiments done with p6SBE-luc, p6MBE-luc, and pGL3-control (Promega) plasmids. Studies of the CMV promoter were done using pCMVβ. (Clonetech, Palo Alto, Calif.), and those of human ubiquitin c promoter were done using pUB6/V5-lacZ (Invitrogen).

[7] = system: PANC-1 cells containing the stably integrated p6SBE-luc; assay: TGFβ/Smad4 signal transduction assay with stably integrated p6SBE-luc (FIGS. 6B, 6C); format: cell-based; conditions: absence or presence of TGFβ 1 ng/ml
Protocol: FIGS. 6A-6C. Proportional effects of scriptaid and TSA on the TGFβ/Smad4 signal transduction assay. FIG. 6A, p6SBE-luc or p6MBE-luc was cotransfected with pCMV-β into PANC-1 cells. Transfected cells were untreated or treated with TGFβor/and scriptaid for 18 hours. […] Relative luciferase induction was determined after normalization to the TGFβ-non-inducible pCMV-β control, itself subject to scriptaid facilitation (see FIG. 7). Data represent averages of two experiments and SEM. FIG. 6B, total luciferase induction in PANC-1 cells containing the stably integrated p6SBE-luc after treatment with scriptaid or TSA in the absence or presence of TGFβ (1 ng/ml). FIG. 6C, relative luciferase induction in PANC-1 cells containing the stably integrated p6SBE-luc after treatment with scriptaid or TSA in the absence or presence of TGFβ (1 ng/ml ) determined after normalization to the values observed with the HDAC inhibitor alone.
Cell Lines. PANC-1 and MDA-MB-468 cell lines were purchased from ATCC (Manassas, Va.). Stable transfectants were generated by co-transfection of pcDNA3.1 (Invitrogen, Carlsbad, Calif.) and p6SBE-luc into PANC-1 cells with LipofectAMINE (Life Technologies, Inc.). Transfected cells were diluted and selected in multiple 96-well plates in the presence of 0.5 mg/ml of G418 (Life Technologies, Inc.). […]

Structure (SMILES)	optimal concentration reported [1]	induction of luciferase activity relative to control wells [3]	cytotoxicity (in words) [5]	facilitation of reporter expression after transient transfection (in words) [6]	effect on TGFβ-stimulated induction of integrated p6SBE-luc (in words) [7]	also measured
CC(=O)NCCCCCCNC(C)=O [HMBA]	5000 µM	–	–	–	–	–
O=C(CCCN1C(=O)c2cccc3cccc(c23)C1=O)NO [nullscript, 4-(1,3-Dioxo-1H,3H-benzo[de]isoquinolin-2-yl)-N-hydroxy-butyramide]	–	did not induce	–	–	–	transcriptional facilitation (in words) [2]: inactive; transcriptional facilitation (in words) ([2]; listed as Nullscipt): does not facilitate transcription
O=C(CCCCCN1C(=O)c2cccc3cccc(c23)C1=O)NO [scriptaid, 6-(1,3-Dioxo-1H,3H-benzo[de]isoquinolin-2-yl)-hexanoic acid hydroxyamide]	–	twelve-fold	not lethal to one cell line	capable of inducing high expression	proportionally enhance the induction of an integrated p6SBE-luc construct without interfering with TGFβ-stimulated transcriptional responses	increase in histone acetylation ([4]; cultured cells, scriptaid 2 μg/ml, 18 hours, anti-acetyl-lysine immunoblot): greater than 100 fold; optimal concentration for transcriptional facilitation [2]: 6 to 8 µM; optimal concentration for transcriptional facilitation ([2]; listed as Scriptaid): 2-2.5 μg/ml and 6-8 μM; survival ([5]; at its optimal concentration for transcriptional facilitation, cell line not named): 80%; increase of transcription of all three reporters (p6SBE-luc, p6MBE-luc, pCMVβ) ([6]; transient cotransfection in PANC-1 cells): twelve-fold
O=C(CCCCCCC(=O)Nc1ccccc1)NO [SAHA]	2 µM	–	–	–	–	–
CC(/C=C/C(=O)NO)=C\[C@@H](C)C(=O)c1ccc(N(C)C)cc1 [TSA, trichostatin A]	–	–	cytotoxic for two cell lines	less predictable at its optimal concentration	proportionally enhance the induction of an integrated p6SBE-luc construct without interfering with TGFβ-stimulated transcriptional responses	inhibition of endogenous histone deacetylation (in words) ([4]; TSA 0.1 μg/ml, compared with scriptaid 2 μg/ml and TSA 0.32 μg/ml): less efficient; survival ([5]; minimal toxic concentration 0.1 μg/ml): 85-90%
O=C(/C=C/c1cccc(C(=O)NO)c1)NO [CBHA]	4 µM	–	–	–	–	–
